Measurements: US10766888B1, “HMOX1 inducers” (Mitobridge Inc., priority 2019, dated 2020)
Where two headings read alike, the source gives them in different places.

What was measured:
[1] = test system: Human Heme Oxygenase-1 (HMOX-1); assay: ELISA assay to measure human heme oxygenase-1 (HMOX-1) in HepG2 lysate; format: cell-based
Method in brief: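 HO-1 protein levels were read as fold change over DMSO-treated cells, with EC50 derived from these values. Quantitation used a chemiluminescent streptavidin-HRP capture ELISA, calibrated with an HO-1 standard series starting at 20 ng/ml, run at 20 °C. Samples were HepG2 lysates made with Triton X100/EDTA buffer and diluted 1:20.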

[2] = PK study: plasma and brain levels in mice; format: in vivo; conditions: male C57BL/6 mice, 50 mg/kg oral; for concentration at 0.5 h / concentration at 4 h: mouse; for concentration at 0.5 h: 0.5 hr post dosing; for concentration at 4 h: 4 hr post dosing
Procedure: 9-10 week old male C57BL/6 mice were dosed orally with 50 mg/kg of the test compound formulated in 5% w/v tween 80 and 0.5% methyl cellulose. At 0.5 and 4 h post dosing, whole blood was collected, animals were sacrificed and brain tissues were collected. The blood samples were immediately placed on ice, and centrifuged within 60 min at 4° C. for 3 min at 14000 rpm to obtain plasma. Plasma was transferred by pipette to pre-labeled Eppendorf tubes, stored at −80° C. until analyzed.
Brain tissue samples were collected and rinsed with fresh ice cold 0.9% NaCl solution, dried quickly and thereafter frozen on dry ice/liquid nitrogen and stored at −70±10° C. until analyzed. Homogenization was done using phosphate buffer saline and used for analysis. Bioanalysis was performed using LC-MS/MS (API 4000).

[3] = human HMOX1 protein level in HepG2 lysate, * = average of 2 or more EC50 determinations, NA = Not Active, read-out: EC50
[4] = brain, read-out: Brain (ng/g) 0.5 hr
[5] = plasma, read-out: Plasma (ng/ml) 0.5 hr
[6] = plasma, read-out: Plasma (ng/ml) 4 hr

Row | EC50 ([1]; HepG2, human HMOX1, as listed in Table 5, read-out: HMOX1 EC50 h) | EC50 [1, 3] | concentration at 0.5 h [2, 4] | concentration at 0.5 h [2, 5] | concentration at 4 h [2, 6] | brain penetration (in words) [2] | concentration at 4 h ([2]; brain, read-out: Brain (ng/g) 4 hr) | SMILES
1 | 1.4 µM | 1.4 µM | 188 ± 83 ng/g | 4240 ± 771 ng/mL | 72 ± 38 ng/mL | – | – | Cn1c(Nc2nc3ccccc3o2)nc2cc(C(=O)NCCOCCO)ccc21 [Example 17, 2-(benzo[d]oxazol-2-ylamino)-N-(2-(2-hydroxyethoxy)ethyl)-1-methyl-1H-benzo[d]imidazole-5-carboxamide]
2 | – | 1.4 µM | 4230 ± 600 ng/g | 4240 ± 428 ng/mL | 281 ± 318 ng/mL | good brain penetration | 122 ± 153 ng/g | COCCNC(=O)c1ccc2c(c1)nc(Nc1nc3ccc(OCCOC)cc3o1)n2C [Example 56, 2-((6-(2-methoxyethoxy)benzo[d]oxazol-2-yl)amino)-N-(2-methoxyethyl)-1-methyl-1H-benzo[d]imidazole-5-carboxamide]
